This is an account of results in ChEMBL document CHEMBL5725348, “Benzimidazole inhibitors of the sodium channel” (2017).

pIC50: −log10 of the molar value. Where only a bound is given, the exact number is not on record here.

The test can be described thus: Nav1.5 Assay: To assess the potential cardiac liability of compounds at an early stage in the drug discovery process, a Nav1.5 sodium channel screening assay was be performed on Molecular Device's PatchXpress™ automated electrophysiology platform. Under voltage-clamp conditions, Nav1.5 currents were recorded from HEK cells expressing the human Nav1.5 channel in the absence and presence of increasing concentrations of the test compound to obtain an IC50 value. The external recording solution contained (in mM): 90 TEACl, 50 NaCl, 1.8 CaCl, 1 MgCl2, 10 HEPES, 10 glucose, adjusted to pH 7.4 with TEA-OH and to 300 mOsm with sucrose (if necessary), while the internal patch pipette solution contained (in mM): 129 CsF, 2 MgCl2, 11 EGTA, 10 HEPES, 3 Na2ATP adjusted to pH 7.2 with CsOH and to 290 mOsm with sucrose (if necessary). Nav1.5 channel currents were evoked using a cardiac action potential waveform at 1 Hz, digitized at 31.25 kHz and low-pass filtered at 12 kHz. The conditions noted are these: HEK293.
On to `NCc1nc2cc(C(F)(F)F)cc(C(F)(F)F)c2[nH]1`, for which the pIC50 was below 5.00.
Next, `O=C1CNCCN1Cc1nc2cc(C(F)(F)F)cc(C(F)(F)F)c2[nH]1`: below 5.00; `O=C1CNCCN1Cc1nc2cc(C(F)(F)F)c(C(F)(F)F)cc2[nH]1`: below 5.00; `NCC(=O)NCc1nc2cc(Cl)c(Cl)cc2[nH]1`: below 5.00.
As for `NCCc1nc2cc(C(F)(F)F)cc(C(F)(F)F)c2[nH]1`, the pIC50 was below 5.00.
Regarding `CNCc1nc2cc(C(F)(F)F)cc(C(F)(F)F)c2[nH]1`, the pIC50 was below 5.00.
Turning to `CC(C)(N)Cc1nc2cc(C(F)(F)F)cc(C(F)(F)F)c2[nH]1`, the pIC50 was 5.44.
In the case of `CC(C)C[C@H](CN)Cc1nc2c(C(F)(F)F)cc(C(F)(F)F)cc2[nH]1`, the pIC50 was below 5.00.
In the case of `NCC(=O)NCc1nc2cc(C(F)(F)F)cc(C(F)(F)F)c2[nH]1`, the pIC50 was below 5.00.
For the molecule `NCCCc1nc2cc(C(F)(F)F)cc(C(F)(F)F)c2[nH]1`, the pIC50 was 5.12.
For the molecule `CC1(NC(=O)CN2CC(Cc3nc4c(C(F)(F)F)cc(C(F)(F)F)cc4[nH]3)C2)CCC1`, the pIC50 was below 5.00.
As to `CC(C)(N)C(=O)NCc1nc2cc(C(F)(F)F)cc(C(F)(F)F)c2[nH]1`, the pIC50 is below 5.00.
As for `FC(F)(F)c1cc(C(F)(F)F)c2nc(CC3CNC3)[nH]c2c1`, the pIC50 was below 5.00.

One may read the pIC50 as the negative decadic logarithm of the IC50, by convention in mol/L.
